“Also recorded” adds a separate entry of the source. Non-standard residues stand in square brackets, D forms with d. Residues, ends and D or L forms follow the SMILES beside them. *: point of attachment. Biotin = O=C1N[C@H]2[C@H](CS[C@H]2CCCCC(=O)*)N1
System: retinal ganglion cells and optic nerve
Test: Optic nerve protection with elevated intraocular pressure
Format: in vivo, DBA/2J mice
Method: A series of experiments were conducted to determine if biotin-HDAP2 preserves mitochondrial ultrastructure in retinal ganglion cells (RGC) axons, whether biotin-HDAP2 preserves the integrity of axons in the optic nerve and/or whether biotin-HDAP2 treatment improves RGC survival. To these ends, 100 DBA/2J mice (8 and 12 weeks old) were obtained with the goal of studying them at 6 and 12 months of age. A small number of animals were examined at 6 months, but they had not yet developed elevated intraocular pressure (IOP), and no differences were observed between treatment conditions in optic nerve appearance or retinal ganglion cell distribution. Therefore, further analysis was delayed until animals reached 10 months, when elevated IOP was reliably present.
Optic nerves from all three experimental conditions (control, untreated and biotin-HDAP2-treated) have been embedded for ultrastructural analysis.
Nerves were obtained from 10-month-old animals who had high IOP for at least 3 consecutive months. Differences between control, untreated and biotin-HDAP2-treated groups were striking and correlated closely with cumulative intraocular pressure (cIOP) exposure.
All retinas in this study were stained with RBPMS, imaged using confocal microscopy, and RGCs were automatically counted using ImageJ. To assess the overall effect of biotin-HDAP2 treatment on RGC survival, RGC counts between biotin-HDAP2-treated and Untreated animals were compared across all available time points.

With `N=C(N)NCCC[C@@H](NC(=O)[C@H](Cc1ccccc1)NC(=O)[C@H](Cc1ccccc1)NC(=O)[C@@H](CCCNC(=N)N)NC(=O)CCCC[C@@H]1SC[C@@H]2NC(=O)N[C@@H]21)C(N)=O` [biotin-HDAP2, Biotin-dArg-Phe-Phe-dArg-NH2] (Biotin-[dR]FF[dR]-NH2) the “optic nerve axon morphology” value (10-month-old animals, high IOP at least 3 months) was “morphologically comparable to those of young controls”, the “RGC counts (mean)” value (all available time points, n=23) was 26,267±14,440 and the “RGC counts compared with other groups” value (elevated cIOP) was “significantly higher RGC counts overall; also recorded: RGC counts similar to controls”. For the same compound, the “mitochondrial ultrastructure in RGC axons (TEM)” value (nerves exposed to high IOP) was “more numerous and exhibit preserved cristae and greater structural integrity”.

— patent US20250276996A1, “CATIONICALLY-ENFRAMED HIGH DENSITY AROMATIC PEPTIDES” (Research Foundation of the City University of New York, priority 2022, published 2025)
